Active and inactive are the calls of the source. Rule as the data show it, for most assays here: actives have a measured Kd and inactives only a lower limit.
Key:
[1] = biological target: Serine/threonine-protein kinase 16 (Homo sapiens, UniProt O75716)
[2] = biological target: Protein kinase C alpha type (Homo sapiens, UniProt P17252)
[3] = biological target: T1, Serine/threonine-protein kinase Chk1 (Homo sapiens, UniProt O14757)
T1 sequence (O14757 whole entry): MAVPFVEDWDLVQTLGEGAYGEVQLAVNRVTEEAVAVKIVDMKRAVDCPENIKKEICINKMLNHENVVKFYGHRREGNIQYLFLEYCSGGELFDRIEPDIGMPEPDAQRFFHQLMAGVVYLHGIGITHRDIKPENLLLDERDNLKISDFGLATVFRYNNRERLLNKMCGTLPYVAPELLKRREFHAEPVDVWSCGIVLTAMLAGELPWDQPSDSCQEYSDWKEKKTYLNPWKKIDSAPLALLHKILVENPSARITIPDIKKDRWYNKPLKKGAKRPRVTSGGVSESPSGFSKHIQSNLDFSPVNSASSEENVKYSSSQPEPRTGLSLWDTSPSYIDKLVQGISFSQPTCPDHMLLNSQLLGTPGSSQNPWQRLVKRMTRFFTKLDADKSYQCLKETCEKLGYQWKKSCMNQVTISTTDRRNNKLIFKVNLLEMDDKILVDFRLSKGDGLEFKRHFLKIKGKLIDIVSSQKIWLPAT

[4] = biological target: Tyrosine-protein kinase BTK (Homo sapiens, UniProt Q06187)
[5] = biological target: T2, Serine/threonine-protein kinase PLK4 (Homo sapiens, UniProt O00444)
T2 sequence (O00444 whole entry): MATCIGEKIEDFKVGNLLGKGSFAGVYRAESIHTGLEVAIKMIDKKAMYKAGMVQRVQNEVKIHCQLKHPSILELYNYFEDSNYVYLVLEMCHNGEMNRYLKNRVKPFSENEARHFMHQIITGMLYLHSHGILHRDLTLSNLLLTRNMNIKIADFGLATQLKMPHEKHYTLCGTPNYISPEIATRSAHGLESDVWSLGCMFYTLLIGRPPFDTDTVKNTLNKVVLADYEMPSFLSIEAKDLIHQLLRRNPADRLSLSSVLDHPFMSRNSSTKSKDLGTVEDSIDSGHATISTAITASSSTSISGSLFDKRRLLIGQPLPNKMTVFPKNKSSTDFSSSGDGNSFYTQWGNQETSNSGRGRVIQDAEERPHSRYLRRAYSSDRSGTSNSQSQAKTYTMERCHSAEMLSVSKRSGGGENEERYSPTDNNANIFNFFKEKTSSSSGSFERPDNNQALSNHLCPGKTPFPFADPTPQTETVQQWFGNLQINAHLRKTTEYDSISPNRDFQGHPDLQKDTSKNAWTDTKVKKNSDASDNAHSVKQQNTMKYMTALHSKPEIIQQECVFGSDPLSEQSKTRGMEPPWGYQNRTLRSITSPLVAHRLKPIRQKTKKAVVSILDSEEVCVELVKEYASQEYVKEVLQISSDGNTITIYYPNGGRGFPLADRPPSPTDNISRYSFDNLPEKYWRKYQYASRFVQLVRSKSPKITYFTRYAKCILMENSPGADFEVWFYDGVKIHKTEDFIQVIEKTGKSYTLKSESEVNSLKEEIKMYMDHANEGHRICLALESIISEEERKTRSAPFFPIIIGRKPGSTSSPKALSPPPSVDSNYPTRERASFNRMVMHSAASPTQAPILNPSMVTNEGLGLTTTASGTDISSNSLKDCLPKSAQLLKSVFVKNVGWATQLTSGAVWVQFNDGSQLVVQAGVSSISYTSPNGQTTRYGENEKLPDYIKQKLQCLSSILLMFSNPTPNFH

[6] = biological target: T3, Rab-like protein 3 (Homo sapiens, UniProt Q5HYI8)
T3 sequence (Q5HYI8 whole entry): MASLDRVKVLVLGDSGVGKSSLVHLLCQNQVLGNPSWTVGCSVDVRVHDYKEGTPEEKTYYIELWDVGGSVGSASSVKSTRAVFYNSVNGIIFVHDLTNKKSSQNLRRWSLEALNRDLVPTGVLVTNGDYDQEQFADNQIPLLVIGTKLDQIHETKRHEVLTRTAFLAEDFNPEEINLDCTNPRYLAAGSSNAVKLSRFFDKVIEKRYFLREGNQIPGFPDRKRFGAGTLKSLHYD

[7] = biological target: cAMP-dependent protein kinase catalytic subunit gamma (Homo sapiens, UniProt P22612)
[8] = biological target: T4, ADP/ATP translocase 2 (Homo sapiens, UniProt P05141)
T4 sequence (P05141 whole entry): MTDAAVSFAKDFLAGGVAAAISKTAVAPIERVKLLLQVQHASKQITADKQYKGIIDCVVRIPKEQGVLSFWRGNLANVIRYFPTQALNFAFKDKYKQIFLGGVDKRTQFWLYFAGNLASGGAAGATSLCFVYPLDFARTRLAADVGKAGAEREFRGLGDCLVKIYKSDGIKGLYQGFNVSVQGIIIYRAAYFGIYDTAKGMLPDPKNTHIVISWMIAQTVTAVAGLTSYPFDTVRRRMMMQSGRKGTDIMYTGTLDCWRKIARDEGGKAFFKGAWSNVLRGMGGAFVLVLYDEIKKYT

[9] = biological target: T5, Serine/threonine-protein kinase 3 (Homo sapiens, UniProt Q13188)
T5 sequence (Q13188 whole entry): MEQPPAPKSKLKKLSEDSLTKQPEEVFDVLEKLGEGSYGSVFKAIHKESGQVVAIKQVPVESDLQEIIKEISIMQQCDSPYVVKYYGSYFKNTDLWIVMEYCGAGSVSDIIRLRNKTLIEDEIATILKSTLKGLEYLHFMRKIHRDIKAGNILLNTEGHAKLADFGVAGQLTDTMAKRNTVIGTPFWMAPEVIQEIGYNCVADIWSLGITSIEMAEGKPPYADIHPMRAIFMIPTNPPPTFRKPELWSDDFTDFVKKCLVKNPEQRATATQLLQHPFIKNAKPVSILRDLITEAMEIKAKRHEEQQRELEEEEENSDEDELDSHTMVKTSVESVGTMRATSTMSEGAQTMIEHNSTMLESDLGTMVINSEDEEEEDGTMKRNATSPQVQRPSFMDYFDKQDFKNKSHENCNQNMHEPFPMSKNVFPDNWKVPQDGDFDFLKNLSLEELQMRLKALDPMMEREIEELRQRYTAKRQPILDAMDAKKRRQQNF
Also: in the data inactive means no Kd found up to 30 µM.

Serine/threonine-protein kinase 16, sequence (O75716 whole entry): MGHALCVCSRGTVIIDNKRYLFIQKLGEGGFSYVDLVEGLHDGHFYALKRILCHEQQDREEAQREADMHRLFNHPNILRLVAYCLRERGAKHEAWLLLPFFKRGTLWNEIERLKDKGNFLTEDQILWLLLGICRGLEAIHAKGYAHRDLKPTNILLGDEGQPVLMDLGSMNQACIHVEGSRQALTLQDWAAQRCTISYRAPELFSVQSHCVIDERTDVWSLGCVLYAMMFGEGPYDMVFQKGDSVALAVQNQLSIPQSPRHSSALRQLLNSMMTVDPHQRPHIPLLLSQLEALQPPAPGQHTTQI
cAMP-dependent protein kinase catalytic subunit gamma, sequence (P22612 whole entry): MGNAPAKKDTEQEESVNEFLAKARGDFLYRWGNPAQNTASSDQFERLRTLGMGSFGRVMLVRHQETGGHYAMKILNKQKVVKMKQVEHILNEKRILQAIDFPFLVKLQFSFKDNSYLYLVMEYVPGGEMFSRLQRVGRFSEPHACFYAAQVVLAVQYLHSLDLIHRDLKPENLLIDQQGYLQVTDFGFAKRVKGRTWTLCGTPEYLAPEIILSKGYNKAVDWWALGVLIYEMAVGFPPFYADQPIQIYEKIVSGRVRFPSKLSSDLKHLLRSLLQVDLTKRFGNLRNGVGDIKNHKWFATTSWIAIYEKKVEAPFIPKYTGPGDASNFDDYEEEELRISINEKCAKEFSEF
Tyrosine-protein kinase BTK, sequence (Q06187 whole entry): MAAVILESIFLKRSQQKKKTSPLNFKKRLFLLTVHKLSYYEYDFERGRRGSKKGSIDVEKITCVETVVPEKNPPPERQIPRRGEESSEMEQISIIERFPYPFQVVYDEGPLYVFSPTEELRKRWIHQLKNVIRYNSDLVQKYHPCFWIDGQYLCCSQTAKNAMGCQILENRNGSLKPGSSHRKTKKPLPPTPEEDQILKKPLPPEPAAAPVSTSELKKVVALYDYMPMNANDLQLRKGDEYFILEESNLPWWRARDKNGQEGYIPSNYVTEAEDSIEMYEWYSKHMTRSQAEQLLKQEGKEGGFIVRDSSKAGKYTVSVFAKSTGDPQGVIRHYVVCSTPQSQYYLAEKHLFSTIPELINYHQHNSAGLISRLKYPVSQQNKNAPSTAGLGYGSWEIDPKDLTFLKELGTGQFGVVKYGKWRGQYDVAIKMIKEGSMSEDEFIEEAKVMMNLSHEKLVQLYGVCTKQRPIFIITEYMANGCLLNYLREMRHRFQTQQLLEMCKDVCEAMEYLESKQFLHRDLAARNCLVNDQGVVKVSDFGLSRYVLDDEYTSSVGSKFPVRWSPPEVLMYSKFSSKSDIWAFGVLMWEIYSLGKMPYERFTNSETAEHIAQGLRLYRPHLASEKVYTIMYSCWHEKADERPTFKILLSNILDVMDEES

## COC(=O)N[C@@H](C)CNc1nccc(-c2cn(C(C)C)nc2-c2cc(Cl)cc(NS(C)(=O)=O)c2F)n1 [ENCORAFENIB]
[1]
  Kd: > 30 µM (inactive)
[2]
  Kd: > 30 µM (inactive)
[3]
  Kd: > 30 µM (inactive)
[4]
  Kd: > 30 µM (inactive)
[5]
  Kd: > 30 µM (inactive)
[6]
  Kd: > 30 µM (inactive)
[7]
  Kd: > 30 µM (inactive)
[8]
  Kd: > 30 µM (inactive)
[9]
  Kd: > 30 µM (inactive)

## CCS(=O)(=O)N1CC(CC#N)(n2cc(-c3ncnc4[nH]ccc34)cn2)C1 [BARICITINIB]
[1]
  Kd: > 30 µM (inactive)
[2]
  Kd: 2.07 µM (active)
[3]
  Kd: > 30 µM (inactive)
[4]
  Kd: > 30 µM (inactive)
[5]
  Kd: > 30 µM (inactive)
[6]
  Kd: > 30 µM (inactive)
[7]
  Kd: > 30 µM (inactive)
[8]
  Kd: > 30 µM (inactive)
[9]
  Kd: > 30 µM (inactive)

## Cc1c(F)cc(C(=O)NC2CC2)cc1-c1ccc(C(=O)NCC(C)(C)C)cn1 [LOSMAPIMOD]
[1]
  Kd: > 30 µM (inactive)
[2]
  Kd: > 30 µM (inactive)
[3]
  Kd: > 30 µM (inactive)
[4]
  Kd: > 30 µM (inactive)
[5]
  Kd: > 30 µM (inactive)
[6]
  Kd: > 30 µM (inactive)
[7]
  Kd: 49.3 µM (active)
[8]
  Kd: > 30 µM (inactive)
[9]
  Kd: > 30 µM (inactive)

## CCN1CCN(Cc2ccc(-c3cc4c(N[C@H](C)c5ccccc5)ncnc4[nH]3)cc2)CC1 [AEE-788]
[1]
  Kd: > 30 µM (inactive)
[2]
  Kd: > 30 µM (inactive)
[3]
  Kd: > 30 µM (inactive)
[4]
  Kd: > 30 µM (inactive)
[5]
  Kd: > 30 µM (inactive)
[6]
  Kd: > 30 µM (inactive)
[7]
  Kd: > 30 µM (inactive)
[8]
  Kd: > 30 µM (inactive)
[9]
  Kd: > 30 µM (inactive)

## CC(=O)Nc1cccc(-n2c(=O)n(C3CC3)c(=O)c3c(Nc4ccc(I)cc4F)n(C)c(=O)c(C)c32)c1 [TRAMETINIB]
[1]
  Kd: > 30 µM (inactive)
[2]
  Kd: > 30 µM (inactive)
[3]
  Kd: > 30 µM (inactive)
[4]
  Kd: > 30 µM (inactive)
[5]
  Kd: > 30 µM (inactive)
[6]
  Kd: > 30 µM (inactive)
[7]
  Kd: > 30 µM (inactive)
[8]
  Kd: > 30 µM (inactive)
[9]
  Kd: > 30 µM (inactive)

## C1=C/COCc2cc(ccc2OCCN2CCCC2)Nc2nccc(n2)-c2cccc(c2)COC/1 [PACRITINIB]
[1]
  Kd: 1.87 µM (active)
[2]
  Kd: 0.934 µM (active)
[3]
  Kd: > 30 µM (inactive)
[4]
  Kd: > 30 µM (inactive)
[5]
  Kd: > 30 µM (inactive)
[6]
  Kd: > 30 µM (inactive)
[7]
  Kd: > 30 µM (inactive)
[8]
  Kd: > 30 µM (inactive)
[9]
  Kd: > 30 µM (inactive)

## N[C@@H]1CCCN(c2c(/C=C3\SC(=O)NC3=O)cccc2-c2ccccc2)C1
[1]
  Kd: > 30 µM (inactive)
[2]
  Kd: > 30 µM (inactive)
[3]
  Kd: > 30 µM (inactive)
[4]
  Kd: > 30 µM (inactive)
[5]
  Kd: > 30 µM (inactive)
[6]
  Kd: > 30 µM (inactive)
[7]
  Kd: > 30 µM (inactive)
[8]
  Kd: > 30 µM (inactive)
[9]
  Kd: > 30 µM (inactive)

## Cc1ccc(NC(=O)c2ccc(CN3CC[C@H](N(C)C)C3)c(C(F)(F)F)c2)cc1Nc1nccc(-c2cncnc2)n1 [BAFETINIB]
[1]
  Kd: > 30 µM (inactive)
[2]
  Kd: > 30 µM (inactive)
[3]
  Kd: > 30 µM (inactive)
[4]
  Kd: > 30 µM (inactive)
[5]
  Kd: > 30 µM (inactive)
[6]
  Kd: > 30 µM (inactive)
[7]
  Kd: > 30 µM (inactive)
[8]
  Kd: > 30 µM (inactive)
[9]
  Kd: > 30 µM (inactive)

## O=C(Nc1ccc(-c2ccnc(Nc3ccc(N4CCOCC4)cc3)n2)cc1)C1CCCN1 (configuration not stated) [XL-019]
[1]
  Kd: > 30 µM (inactive)
[2]
  Kd: > 30 µM (inactive)
[3]
  Kd: > 30 µM (inactive)
[4]
  Kd: > 30 µM (inactive)
[5]
  Kd: 0.908 µM (active)
[6]
  Kd: > 30 µM (inactive)
[7]
  Kd: > 30 µM (inactive)
[8]
  Kd: > 30 µM (inactive)
[9]
  Kd: > 30 µM (inactive)

## O=C(c1ccc(F)c(F)c1Nc1ccc(I)cc1F)N1CC(O)([C@@H]2CCCCN2)C1 [COBIMETINIB]
[1]
  Kd: > 30 µM (inactive)
[2]
  Kd: > 30 µM (inactive)
[3]
  Kd: > 30 µM (inactive)
[4]
  Kd: > 30 µM (inactive)
[5]
  Kd: > 30 µM (inactive)
[6]
  Kd: > 30 µM (inactive)
[7]
  Kd: > 30 µM (inactive)
[8]
  Kd: > 30 µM (inactive)
[9]
  Kd: > 30 µM (inactive)

## C[C@@H]1CN(Cc2ccc(F)cc2)[C@@H](C)CN1C(=O)c1cc2c(C(=O)C(=O)N(C)C)cn(C)c2cc1Cl [TALMAPIMOD]
[1]
  Kd: > 30 µM (inactive)
[2]
  Kd: > 30 µM (inactive)
[3]
  Kd: > 30 µM (inactive)
[4]
  Kd: > 30 µM (inactive)
[5]
  Kd: > 30 µM (inactive)
[6]
  Kd: > 30 µM (inactive)
[7]
  Kd: > 30 µM (inactive)
[8]
  Kd: > 30 µM (inactive)
[9]
  Kd: > 30 µM (inactive)

## Cc1cc(-c2cc(O)ccc2Cl)cc2nnc(Nc3ccc(OCCN4CCCC4)cc3)nc12
[1]
  Kd: > 30 µM (inactive)
[2]
  Kd: > 30 µM (inactive)
[3]
  Kd: > 30 µM (inactive)
[4]
  Kd: > 30 µM (inactive)
[5]
  Kd: > 30 µM (inactive)
[6]
  Kd: > 30 µM (inactive)
[7]
  Kd: > 30 µM (inactive)
[8]
  Kd: > 30 µM (inactive)
[9]
  Kd: > 30 µM (inactive)

## Cc1cc([C@@H](C)Nc2ccccc2C(=O)O)c2nc(N3CCOCC3)cc(=O)n2c1 [AZD-6482]
[1]
  Kd: > 30 µM (inactive)
[2]
  Kd: > 30 µM (inactive)
[3]
  Kd: > 30 µM (inactive)
[4]
  Kd: > 30 µM (inactive)
[5]
  Kd: > 30 µM (inactive)
[6]
  Kd: > 30 µM (inactive)
[7]
  Kd: > 30 µM (inactive)
[8]
  Kd: > 30 µM (inactive)
[9]
  Kd: > 30 µM (inactive)

Source: ChEMBL document CHEMBL3991601, “The target landscape of clinical kinase drugs” (Science, 2017)
